How the values were obtained:
[1] = target: T1, Bromodomain-containing protein 4 (Homo sapiens, UniProt O60885); assay: Binding affinity to His-6 tagged BRD4 BD1 bromodomain (unknown origin) incubated for 10 mins by TR-FRET assay
[2] = target: T1, Bromodomain-containing protein 4; assay: Binding affinity to His-6 tagged BRD4 BD2 bromodomain (unknown origin) incubated for 10 mins by TR-FRET assay

IC50 [1]: 3.3 nM | IC50 [2]: 3.7 nM
SMILES: COC(=O)c1cc2c(cc1CS(C)(=O)=O)-c1cn(C)c(=O)c3[nH]cc(c13)CN2c1ncc(C#CCN)cc1F

— ChEMBL document CHEMBL4706766, “Novel Bromodomain BRD4 Inhibitors for Treating Cancer” (ACS Med Chem Lett, 2021)
